Legend:
[1] = test system: ECHORC (Echinochloa oryzoides); experiment: Flooded paddy, preemergence weed control; assay type: in vivo, Echinochloa oryzoides (Ard.) Fritsch.; details: rated 3-4 weeks after treatment, 0-9 rating scale
Procedure, shortened: (§1)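 Under paddy conditions, seeds or vegetative propagules go into the top 0.5 cm of silt loam; the soil is then flooded to 1.5–3 cm and kept so. Treated pots stay in a greenhouse; response is rated 0-9 visually versus control.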

[2] = test system: SAGPY (Sagittaria pygmaea); experiment: Flooded paddy, preemergence weed control; assay type: in vivo, L.; details: rated 3-4 weeks after treatment, 0-9 rating scale
Procedure, shortened: as §1

[3] = test system: IPOHE (Ipomoea hederacea); experiment: Postemergence herbicidal evaluation; assay type: in vivo, (L.) Jacq.; details: postemergence
Procedure, shortened: (§2)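 Seedlings grown for about two weeks were sprayed postemergence and then kept under standard greenhouse care. Injury was rated visually 4–5 weeks after treatment on a 0–9 scale against untreated controls, and ratings from repeat tests were averaged.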

[4] = test system: CASOB (Cassia obtusifolia); experiment: Preemergence herbicidal evaluation; assay type: in vivo, L.; details: rated 4-5 weeks after treatment
Procedure, shortened: (§3)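 Greenhouse preemergence test: freshly planted cups were sprayed once with an aqueous acetone solution of compound. Injury was judged visually on a 0–9 scale relative to a control, four to five weeks later.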

[5] = test system: CHEAL (Chenopodium album); experiment: Preemergence herbicidal evaluation; assay type: in vivo, L.; details: rated 4-5 weeks after treatment
Procedure, shortened: as §3

[6] = test system: AMBEL (Ambrosia artemisifolia); experiment: Preemergence herbicidal evaluation; assay type: in vivo, L.; details: rated 4-5 weeks after treatment
Procedure, shortened: as §3

CYPIR (Cyperus iria) = experiment: Flooded paddy, preemergence weed control; assay type: in vivo; details: rated 3-4 weeks after treatment, 0-9 rating scale
Procedure, shortened: as §1

[7] = test system: ABUTH (Abutilon theophrasti); experiment: Postemergence herbicidal evaluation; assay type: in vivo, Medic.; details: postemergence
Procedure, shortened: as §2

[8] = test system: TRZAWR (Wheat, Winter, cv Riband); experiment: Preemergence herbicidal evaluation; assay type: in vivo, Triticum aestivum; details: rated 4-5 weeks after treatment
Procedure, shortened: as §3

GALAP (Galium aparine) [9] = experiment: Preemergence herbicidal evaluation; assay type: in vivo; details: rated 4-5 weeks after treatment
Procedure, shortened: as §3

ZEAMX (Corn, Field) [10] = experiment: Preemergence herbicidal evaluation; assay type: in vivo, Zea mays, L.; details: rated 4-5 weeks after treatment
GALAP (Galium aparine) [11] = experiment: Postemergence herbicidal evaluation; assay type: in vivo; details: postemergence
Procedure, shortened: as §2

[12] = test system: IPOHE (Ipomoea hederacea); experiment: Preemergence herbicidal evaluation; assay type: in vivo, (L.) Jacq.; details: rated 4-5 weeks after treatment
[13] = test system: GLXMAW (Soybean, Williams); experiment: Postemergence herbicidal evaluation; assay type: in vivo, Glycine max, (L.) Merr. cv Williams; details: postemergence
Procedure, shortened: as §2

ZEAMX (Corn, Field) [14] = experiment: Postemergence herbicidal evaluation; assay type: in vivo, Zea mays, L.; details: postemergence
Procedure, shortened: as §2

[15] = test system: CASOB (Cassia obtusifolia); experiment: Postemergence herbicidal evaluation; assay type: in vivo, L.; details: postemergence
Procedure, shortened: as §2

[16] = test system: CHEAL (Chenopodium album); experiment: Postemergence herbicidal evaluation; assay type: in vivo, L.; details: postemergence
Procedure, shortened: as §2

[17] = test system: AMBEL (Ambrosia artemisifolia); experiment: Postemergence herbicidal evaluation; assay type: in vivo, L.; details: postemergence
Procedure, shortened: as §2

ORYSAT (Rice, Tebonnet) = experiment: Preemergence herbicidal evaluation; assay type: in vivo, Oryza sativa, (L.) Tebonnet; details: rated 4-5 weeks after treatment
[18] = test system: GLXMAW (Soybean, Williams); experiment: Preemergence herbicidal evaluation; assay type: in vivo, Glycine max, (L.) Merr. cv Williams; details: rated 4-5 weeks after treatment
[19] = test system: ECHCG (Echinochloa crus-galli); experiment: Postemergence herbicidal evaluation; assay type: in vivo, (L.) Beau; details: postemergence
Procedure, shortened: as §2

CC1=CC(C)(C)OC(c2nsc3ccc(-n4c(=O)cc(C(F)(F)F)n(C)c4=O)cc23)C1 (stereo not drawn) [Compound 65, 3-[3-(3,6-dihydro-4,6,6-trimethyl-2H-pyran-2-yl)-1,2-benzisothiazol-5-yl]-1-methyl-6-(trifluoromethyl)uracil]
8.0: Preemergence herbicidal rating AMBEL ([6]; Rate 0.0620 kg/ha) | Preemergence herbicidal rating ZEAMX (ZEAMX (Corn, Field) [10]; Rate 0.1250 kg/ha)
0.0: herbicidal rating, ECHORC ([1]; rate 0.0080 kg/ha) | herbicidal rating, ECHORC ([1]; rate 0.0320 kg/ha) | herbicidal rating, SAGPY ([2]; rate 0.0080 kg/ha) | herbicidal rating, SAGPY ([2]; rate 0.0320 kg/ha) | herbicidal rating, SAGPY ([2]; rate 0.1250 kg/ha) | Preemergence herbicidal rating CASOB ([4]; Rate 0.0620 kg/ha) | Preemergence herbicidal rating CASOB ([4]; Rate 0.1250 kg/ha) | Preemergence herbicidal rating CASOB ([4]; Rate 0.2500 kg/ha) | herbicidal rating, CYPIR (CYPIR (Cyperus iria); rate 0.0080 kg/ha) | herbicidal rating, CYPIR (CYPIR (Cyperus iria); rate 0.0320 kg/ha) | Preemergence herbicidal rating IPOHE ([12]; Rate 0.0620 kg/ha)
7.0: herbicidal rating, ECHORC ([1]; rate 0.1250 kg/ha) | Preemergence herbicidal rating TRZAWR ([8]; Rate 0.1250 kg/ha) | Preemergence herbicidal rating GALAP (GALAP (Galium aparine) [9]; Rate 0.1250 kg/ha) | Preemergence herbicidal rating GALAP (GALAP (Galium aparine) [9]; Rate 0.2500 kg/ha) | Preemergence herbicidal rating ZEAMX (ZEAMX (Corn, Field) [10]; Rate 0.0620 kg/ha) | GLXMAW herbicidal rating ([13]; rate 0.0620 kg/ha) | CHEAL herbicidal rating ([16]; rate 0.0320 kg/ha) | Preemergence herbicidal rating ORYSAT (ORYSAT (Rice, Tebonnet); Rate 0.0620 kg/ha) | Preemergence herbicidal rating ORYSAT (ORYSAT (Rice, Tebonnet); Rate 0.1250 kg/ha)
5.0: Preemergence herbicidal rating TRZAWR ([8]; Rate 0.0620 kg/ha) | Preemergence herbicidal rating GALAP (GALAP (Galium aparine) [9]; Rate 0.0620 kg/ha) | GALAP herbicidal rating (GALAP (Galium aparine) [11]; rate 0.0320 kg/ha) | ZEAMX herbicidal rating (ZEAMX (Corn, Field) [14]; rate 0.0320 kg/ha) | CASOB herbicidal rating ([15]; rate 0.0620 kg/ha) | ECHCG herbicidal rating ([19]; rate 0.0620 kg/ha)
2.0: Preemergence herbicidal rating GLXMAW ([18]; Rate 0.0620 kg/ha)
3.0: Preemergence herbicidal rating IPOHE ([12]; Rate 0.1250 kg/ha) | Preemergence herbicidal rating GLXMAW ([18]; Rate 0.1250 kg/ha)
4.0: CASOB herbicidal rating ([15]; rate 0.0320 kg/ha) | ECHCG herbicidal rating ([19]; rate 0.0320 kg/ha)
6.0: GALAP herbicidal rating (GALAP (Galium aparine) [11]; rate 0.0620 kg/ha) | Preemergence herbicidal rating GLXMAW ([18]; Rate 0.2500 kg/ha)
5.5: GLXMAW herbicidal rating ([13]; rate 0.0320 kg/ha) | ZEAMX herbicidal rating (ZEAMX (Corn, Field) [14]; rate 0.0620 kg/ha)
9.0: IPOHE herbicidal rating ([3]; rate 0.0320 kg/ha) | IPOHE herbicidal rating ([3]; rate 0.0620 kg/ha) | Preemergence herbicidal rating CHEAL ([5]; Rate 0.0620 kg/ha) | Preemergence herbicidal rating CHEAL ([5]; Rate 0.1250 kg/ha) | Preemergence herbicidal rating CHEAL ([5]; Rate 0.2500 kg/ha) | Preemergence herbicidal rating AMBEL ([6]; Rate 0.1250 kg/ha) | Preemergence herbicidal rating AMBEL ([6]; Rate 0.2500 kg/ha) | herbicidal rating, CYPIR (CYPIR (Cyperus iria); rate 0.1250 kg/ha) | ABUTH herbicidal rating ([7]; rate 0.0320 kg/ha) | ABUTH herbicidal rating ([7]; rate 0.0620 kg/ha) | Preemergence herbicidal rating TRZAWR ([8]; Rate 0.2500 kg/ha) | Preemergence herbicidal rating ZEAMX (ZEAMX (Corn, Field) [10]; Rate 0.2500 kg/ha) | Preemergence herbicidal rating IPOHE ([12]; Rate 0.2500 kg/ha) | CHEAL herbicidal rating ([16]; rate 0.0620 kg/ha) | AMBEL herbicidal rating ([17]; rate 0.0320 kg/ha) | AMBEL herbicidal rating ([17]; rate 0.0620 kg/ha) | Preemergence herbicidal rating ORYSAT (ORYSAT (Rice, Tebonnet); Rate 0.2500 kg/ha)
